{"source": "paper PMC4502317", "about": "“Two helices in the third intracellular loop determine anoctamin 1 (TMEM16A) activation by calcium” (Pflugers Archiv, 2014)", "key": {"ANO1 [1]": {"system": "ANO1", "test": "Block of Ca^2+-induced ANO1 currents by helix peptides, inside-out patches", "format": "cell-based, mouse", "details": "3 μM Ca^2+, E h = +80 mV", "experimental": "Fig. 4 The reference helix of the ICL3 region interacts with the Ca^2+ sensor helix in a Ca^2+-dependent way. a, b Physical interaction between the reference and Ca^2+ sensor helices was assessed with a surface plasmon resonance assay. Biotinylated Ca^2+ sensor helix peptide (692-NLEPFAGLTPEYMEM-706) was immobilized on a streptavidin-coated gold sensor chip. Resonance intensities were measured after solutions containing 0, 0.4, and 2.0 mM Ca^2+ and various concentrations of reference helix peptide (651-[…]-671) (a) or its Ala-substituted mutants (651-[…]-671) (b) were flowed through the gold chip. […] Ca^2+ (3 μM) was applied three times to inside-out patches of ANO1-transfected HEK cells. At the second Ca^2+ challenge, the peptides were also given. […] Current amplitudes were normalized to the current amplitude obtained after of the first Ca^2+ challenge. At the second Ca^2+ challenge, reference helix peptide (black circle, **p < 0.01 compared to the relative response of vehicle application, one-way ANOVA, Newman-Keuls post hoc test, n = 13), Ala-replaced reference helix peptide (black inverted triangle, n = 8), the Ca^2+ sensor helix peptide (700-TPEYMEMIIQFGF-712) (black square, **p < 0.01 compared to the relative response of vehicle application, one-way ANOVA, Newman-Keuls post hoc test, n = 7), and vehicle (white circle, n = 8) were also applied […]\n(§1) Borosilicate glass pipettes (World Precision Instruments, Sarasota, FL) with tip resistances of ~2 Mohms were used to form gigaseals on HEK cells. […] Currents were recorded with a patch-clamp amplifier (Axopatch 200B, […]) with a 1-KHz filter. […]\n(§2) The control pipette solution contained 140 mM N-methyl D-glucamine, 2 mM MgCl2, and 10 mM HEPES adjusted to pH 7.2 with HCl. […] The bath solution contained (in mM) 140 N-methyl D-glucamine, 2 MgCl2, 10 HEPES, 10 chelator (EGTA, N(2-hydroxyethyl) ethylenediamine triacetic acid (HEDTA), or nitrilotriacetic acid (NTA)), and a calculated amount of CaCl2 (adjusted with HCl to pH 7.2). […] Free Ca^2+ less than 30 μM in each solution was monitored with Fura-2 fluorometry."}, "ANO1 [2]": {"system": "ANO1", "test": "Inhibition of Eact-activated ANO1 currents by helix peptides, inside-out patches", "format": "cell-based, mouse", "details": "n = 5", "experimental": "Fig. 6 Eact, a synthetic agonist of ANO1 acts on the ICL3 region. a Example traces depicting activation by Eact of WT ANO1 (upper left), 444-EEEEE-448 (Δ5E, upper right), ΔICL3 (lower left), and 659-QMQQFIAYLQ-668 mutant (lower right). b Example traces of Eact-induced ANO1 currents, which were blocked by bath application of the reference helix peptide (Ref helix peptide, 651-[…]-671, 4 μM, lower panel) but not by the Ca^2+ sensor helix peptide (CSH peptide, 700-TPEYMEMIIQFGF-712, 10 μM, middle panel). To test the effects of peptide, 1 μM Eact was applied three times. At the second Eact challenge, each peptide was also applied. c A summary of the effects of applications of helix peptides on Eact-induced ANO1 currents. Current amplitudes were normalized to the current amplitude obtained after of the first Eact challenge. Reference helix peptide (black square, n = 5), its Ala-mutant peptide (black inverted triangle, n = 5), Ca^2+ sensor helix peptide (black triangle, n = 5), or vehicle (white circle, n = 14) was applied at the second Eact challenge. *p < 0.05 compared to the relative response of vehicle application, one-way ANOVA followed by Newman-Keuls post hoc test\nWe then applied the two helix peptides to see if these peptides compete with Eact in activating ANO1.\nAll mutants were generated from the wild-type construct, mouse ANO1 (pEGFP-N1-mANO1). […]\nas §1, §2"}, "[3]": {"system": "biotinylated Ca^2+ sensor helix peptide of ANO1 (692-NLEPFAGLTPEYMEM-706)", "test": "Surface plasmon resonance, binding to immobilized Ca^2+ sensor helix peptide", "parameters": "species or system mouse", "experimental": "According to the gating hypothesis, physical binding of the two helices and the interference of Ca^2+ in this interaction are key determinants for gating ANO1. To investigate this relationship, physical interaction between the two helices was measured using surface plasmon resonance. A peptide segment (692-NLEPFAGLTPEYMEM-706) spanning the Ca^2+ sensor helix of ANO1 was synthesized, biotinylated at the N-terminus, and immobilized on a streptavidin-coated gold sensor chip. Subsequently, a synthetic peptide spanning the reference helix (651-[…]-671) was passed over the immobilized Ca^2+ sensor helix.\nA Biacore 3000 was used for kinetic surface plasmon resonance measurement as previously described. Briefly, a biotinylated peptide (692-NLEPFAGLTPEYMEM-706) was immobilized on a SA chip or custom streptavidin-coated CM5 sensor chip (GE Healthcare), with one flow cell with biotin alone as a reference cell. For the binding assay, HEPES-buffered saline containing 0.005 % of Tween 20 was used as a running buffer. Various concentrations of the reference helix peptide (aa 651–671) were injected for 120 s and dissociated for 240 s at a flow rate of 20 μL/min. Binding curves were analyzed using BIAevaluation 3.1."}, "Δ5E ANO1 mutant": {"system": "Δ5E ANO1 mutant", "test": "Eact activation of Δ5E ANO1 mutant, inside-out patches", "format": "cell-based, mouse", "details": "maximal Eact (10 μM)", "experimental": "(§3) Eact, a synthetic agonist of ANO1, was synthesized for the purpose of treating cystic fibrosis in an attempt to bypass dysfunctioning CFTR channel. Even though Eact was known to activate ANO1, the activation mechanism is not known. We therefore hypothesized that Eact also acts on the ICL3 region.\n(§4) All mutants were generated from the wild-type construct, mouse ANO1 (pEGFP-N1-mANO1). Amino acid substitution or deletion mutants were prepared using a site-directed mutagenesis kit (Muta-direct, iNtRON Biotech) or by using the overlap PCR method. Mutations in all mutants were confirmed by sequencing whole nucleotide sequences. […]\nas §1, §2"}, "[4]": {"system": "ΔICL3, the deletion mutant of ANO1 in the ICL3 region", "test": "Eact activation of ΔICL3 ANO1 mutant", "format": "cell-based, mouse", "experimental": "as §3, §4, §1, §2"}, "[5]": {"system": "ANO1 285-AGAYAGA-291 mutant", "test": "Eact activation of ANO1 EF-hand-like region mutant", "format": "cell-based, mouse", "details": "data not shown", "experimental": "as §3, §4, §1, §2"}, "[6]": {"system": "ANO1 659-QMQQFIAYLQ-668 mutant", "test": "Eact activation of ANO1 reference helix mutant", "format": "cell-based, mouse", "experimental": "as §3, §4, §1, §2"}, "ANO1 [7]": {"system": "ANO1", "test": "Eact activation of ANO1, inside-out patches", "format": "cell-based, mouse", "details": "1 μM Eact to bath of inside-out patch", "experimental": "as §3, §4, §1, §2"}, "ANO1 QYMQ mutant": {"system": "ANO1 QYMQ mutant", "test": "Eact activation of ANO1 Ca^2+ sensor helix mutant", "format": "cell-based, mouse", "details": "data not shown", "experimental": "as §3, §4, §1, §2"}, "[8]": {"test": "Circular dichroism spectroscopy of reference helix peptides", "format": "physicochemical", "experimental": "To confirm whether the reference helix of ANO1 forms an α-helix, circular dichroism spectroscopy was performed with synthetic peptides spanning the reference helix regions of ANO1 (652-LFEIGIPKMKKFIRYLKL-669) and ANO2 (604-IFEIGVPKLKKLFRKLKD-621)."}, "[9]": {"target": "T1, Ca2+ sensor helix peptide of ANO1 (692-NLEPFAGLTPEYMEM-706), biotinylated (mouse)", "T1 construct": "Anoctamin 1 (ANO1/TMEM16A), mouse, residues 692-706, Ca2+ sensor helix of the third intracellular loop (ICL3); Held on the streptavidin chip by its N-terminal biotin; also called biotinylated Ca2+ sensor helix peptide; source: synthetic peptide", "T1 peptide": "Biotin-NLEPFAGLTPEYMEM", "test": "SPR; Biacore 3000; biotinylated Ca2+ sensor helix peptide immobilised on an SA chip or custom streptavidin-coated CM5 chip, reference cell with biotin alone; HEPES-buffered saline with 0.005 % Tween 20; various concentrations of reference helix peptide injected for 120 s, dissociation 240 s, 20 uL/min; solutions with 0, 0.4 and 2.0 mM Ca2+ (Ca2+ reduced the interaction dose-dependently)", "details": "both partners purified"}}, "note": "Where no end group is shown, it is not given here. The star is where a group is joined. Biotin = O=C1N[C@H]2[C@H](CS[C@H]2CCCCC(=O)*)N1", "data": [{"molecule": "700-TPEYMEMIIQFGF-712 [Ca^2+ sensor helix peptide, Ca^2+ sensor helix peptide (700-…-712)]", "values": [{"measurement": "effect on Ca^2+-induced ANO1 currents", "setting": "ANO1 [1]; 10 μM peptide, p < 0.01 vs vehicle, one-way ANOVA, Newman-Keuls, n = 7", "result": "markedly blocked"}, {"measurement": "effect on Eact-activated ANO1 currents", "setting": "ANO1 [2]; 10 μM peptide with 1 μM Eact", "result": "failed to inhibit"}]}, {"molecule": "651-NLFEIGIPAMAAFIAYLALAA-671 [Ala-mutant reference helix peptide]", "values": [{"measurement": "interaction with Ca^2+ sensor helix peptide", "setting": "[3]; regardless of Ca^2+ concentration (0, 0.4 and 2.0 mM)", "result": "failed to show any interaction"}, {"measurement": "effect on Ca^2+-induced ANO1 currents", "setting": "ANO1 [1]; 4 μM Ala-mutant peptide, n = 8", "result": "failed to block"}, {"measurement": "effect on Eact-activated ANO1 currents", "setting": "ANO1 [2]; Ala-substituted peptide with 1 μM Eact", "result": "failed to inhibit"}]}, {"molecule": "COCCN(C(=O)c1cc(OC)c(OC)c(OC)c1)c1nc(-c2ccccc2)cs1", "note": "[Eact]", "values": [{"measurement": "activation by Eact", "setting": "Δ5E ANO1 mutant", "result": "activated the Δ5E ANO1 mutant"}, {"measurement": "activation by Eact", "setting": "[4]", "result": "failed to activate"}, {"measurement": "activation by Eact", "setting": "[5]", "result": "activated 285-AGAYAGA-291 mutant"}, {"measurement": "activation by Eact", "setting": "[6]", "result": "failed to activate"}, {"measurement": "activation of ANO1 by Eact", "setting": "ANO1 [7]", "result": "activated ANO1"}, {"measurement": "activation by Eact", "setting": "ANO1 QYMQ mutant", "result": "failed to activate"}]}, {"molecule": "651-NLFEIGIPKMKKFIRYLKLRR-671 [reference helix peptide]", "values": [{"measurement": "interaction with Ca^2+ sensor helix peptide", "setting": "[3]; absence of Ca^2+, Biacore 3000, HEPES-buffered saline, 0.005 % Tween 20, 20 μL/min, 120 s injection, 240 s dissociation", "result": "interacted strongly with the Ca^2+ sensor helix"}, {"measurement": "effect on Ca^2+-induced ANO1 currents", "setting": "ANO1 [1]; 4 μM peptide, p < 0.01 vs vehicle, one-way ANOVA, Newman-Keuls, n = 13", "result": "markedly blocked"}, {"measurement": "effect on Eact-activated ANO1 currents", "setting": "ANO1 [2]; 4 μM peptide with 1 μM Eact, p < 0.05 vs vehicle, one-way ANOVA, Newman-Keuls", "result": "significantly inhibited"}]}, {"molecule": "652-LFEIGIPKMKKFIRYLKL-669", "values": [{"measurement": "circular dichroism spectrum", "setting": "[8]", "result": "typical circular dichroism spectrum of an α-helix with a positive band around 192 nm and negative bands around 208 and 222 nm"}]}, {"molecule": "604-IFEIGVPKLKKLFRKLKD-621", "values": [{"measurement": "circular dichroism spectrum", "setting": "[8]", "result": "typical circular dichroism spectrum of an α-helix with a positive band around 192 nm and negative bands around 208 and 222 nm"}]}, {"molecule": "NLFEIGIPKMKKFIRYLKLRR (source: synthetic peptide)", "note": "[reference helix peptide of ANO1 (651-NLFEIGIPKMKKFIRYLKLRR-671)]", "values": [{"measurement": "binding result", "setting": "[9]", "result": "binds"}]}]}
